Results taken from ChEMBL document CHEMBL1933031, “Discovery and bioactivity of 4-(2-arylpyrido[3',2':3,4]pyrrolo[1,2-f][1,2,4]triazin-4-yl) morpholine derivatives as novel PI3K inhibitors” (Bioorg Med Chem Lett, 2012).
Active and inactive are the calls of the source. No cut-off for these calls is given here.

Experiments:
[1] = Cell cycle arrest in human Rh30 cells assessed as increase in subG1 cell phase at 10 uM by flow cytometric analysis; assay type: functional, cell-based; details: SJRH30
[2] = Inhibition of PI3K-mediated Akt phosphorylation at Ser473 at 3 uM by Western blot analysis
[3] = target: Mast/stem cell growth factor receptor Kit (Homo sapiens) (UniProt P10721); assay: Inhibition of c-Kit at 10 uM
Chain of Mast/stem cell growth factor receptor Kit (Homo sapiens) (P10721 whole entry): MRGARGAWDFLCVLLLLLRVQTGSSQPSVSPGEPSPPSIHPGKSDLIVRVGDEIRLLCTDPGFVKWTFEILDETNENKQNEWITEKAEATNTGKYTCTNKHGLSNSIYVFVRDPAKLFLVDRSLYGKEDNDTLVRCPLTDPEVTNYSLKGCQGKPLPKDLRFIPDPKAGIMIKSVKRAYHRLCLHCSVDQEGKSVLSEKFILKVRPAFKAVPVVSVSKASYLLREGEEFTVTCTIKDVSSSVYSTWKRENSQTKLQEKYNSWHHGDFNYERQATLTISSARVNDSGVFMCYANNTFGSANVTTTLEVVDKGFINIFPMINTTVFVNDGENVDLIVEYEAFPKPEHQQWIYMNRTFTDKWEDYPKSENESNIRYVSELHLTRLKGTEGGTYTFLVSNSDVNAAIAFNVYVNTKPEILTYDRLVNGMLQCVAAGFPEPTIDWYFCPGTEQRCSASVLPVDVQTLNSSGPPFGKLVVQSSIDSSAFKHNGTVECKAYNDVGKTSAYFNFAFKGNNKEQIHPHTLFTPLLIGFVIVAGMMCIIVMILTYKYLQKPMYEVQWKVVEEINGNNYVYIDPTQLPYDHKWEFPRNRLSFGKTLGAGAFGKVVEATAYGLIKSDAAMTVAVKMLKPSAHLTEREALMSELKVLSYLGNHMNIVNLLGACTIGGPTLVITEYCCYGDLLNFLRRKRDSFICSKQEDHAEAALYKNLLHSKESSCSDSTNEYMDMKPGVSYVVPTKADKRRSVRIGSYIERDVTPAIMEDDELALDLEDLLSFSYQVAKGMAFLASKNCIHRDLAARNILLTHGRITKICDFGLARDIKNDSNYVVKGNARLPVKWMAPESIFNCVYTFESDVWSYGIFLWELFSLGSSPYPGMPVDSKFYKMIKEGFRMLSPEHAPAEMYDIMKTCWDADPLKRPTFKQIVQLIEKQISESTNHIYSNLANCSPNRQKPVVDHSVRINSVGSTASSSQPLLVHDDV

[4] = target: Insulin-like growth factor 1 receptor (Homo sapiens) (UniProt P08069); assay: Inhibition of IGF1R at 10 uM
Chain of Insulin-like growth factor 1 receptor (Homo sapiens) (P08069 31-736 limits assumed): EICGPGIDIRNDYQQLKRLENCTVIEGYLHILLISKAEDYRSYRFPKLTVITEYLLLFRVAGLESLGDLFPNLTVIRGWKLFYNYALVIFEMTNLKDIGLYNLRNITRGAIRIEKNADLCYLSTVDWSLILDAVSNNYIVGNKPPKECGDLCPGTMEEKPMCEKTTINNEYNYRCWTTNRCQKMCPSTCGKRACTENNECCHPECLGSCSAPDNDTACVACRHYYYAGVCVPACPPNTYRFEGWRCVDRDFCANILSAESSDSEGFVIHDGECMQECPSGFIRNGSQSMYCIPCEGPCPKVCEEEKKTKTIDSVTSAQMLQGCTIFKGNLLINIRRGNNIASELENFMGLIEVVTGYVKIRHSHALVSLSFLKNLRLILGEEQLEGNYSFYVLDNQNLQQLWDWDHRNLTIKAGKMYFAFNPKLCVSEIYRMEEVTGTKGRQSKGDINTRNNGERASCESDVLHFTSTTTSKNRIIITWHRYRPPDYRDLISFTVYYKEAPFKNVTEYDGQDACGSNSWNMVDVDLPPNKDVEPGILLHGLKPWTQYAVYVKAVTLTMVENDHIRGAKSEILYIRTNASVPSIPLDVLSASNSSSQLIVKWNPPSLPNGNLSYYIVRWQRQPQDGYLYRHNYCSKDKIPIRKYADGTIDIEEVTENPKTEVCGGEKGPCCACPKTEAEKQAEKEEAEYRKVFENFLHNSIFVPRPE
Chain of Insulin-like growth factor 1 receptor (Homo sapiens) (P08069 741-1367 limits assumed): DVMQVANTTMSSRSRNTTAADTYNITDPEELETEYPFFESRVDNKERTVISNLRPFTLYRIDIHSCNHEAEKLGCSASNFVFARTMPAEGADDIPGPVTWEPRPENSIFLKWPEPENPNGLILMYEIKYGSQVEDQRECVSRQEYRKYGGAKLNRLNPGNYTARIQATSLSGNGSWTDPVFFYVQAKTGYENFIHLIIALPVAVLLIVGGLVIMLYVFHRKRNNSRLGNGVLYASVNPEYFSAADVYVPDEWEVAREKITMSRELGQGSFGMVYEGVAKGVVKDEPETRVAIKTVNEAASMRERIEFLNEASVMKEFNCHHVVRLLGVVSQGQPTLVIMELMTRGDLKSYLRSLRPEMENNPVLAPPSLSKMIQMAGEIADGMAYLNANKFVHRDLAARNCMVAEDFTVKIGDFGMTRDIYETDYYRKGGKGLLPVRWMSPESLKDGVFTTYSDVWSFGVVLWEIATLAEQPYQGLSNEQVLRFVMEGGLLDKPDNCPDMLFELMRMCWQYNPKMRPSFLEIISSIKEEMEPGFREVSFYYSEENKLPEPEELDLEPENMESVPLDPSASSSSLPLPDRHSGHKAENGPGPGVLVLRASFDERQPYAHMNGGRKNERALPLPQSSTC

[5] = Antiproliferative activity against human BEL-7402 cells
ECV-304 = assay: Antiproliferative activity against human ECV304 cells; assay type: functional, cell-based
[6] = target: Platelet-derived growth factor receptor beta (Homo sapiens) (UniProt P09619); assay: Inhibition of PDGFRbeta at 10 uM
[7] = target: Hepatocyte growth factor receptor (Homo sapiens) (UniProt P08581); assay: Inhibition of c-Met at 10 uM
[8] = Inhibition of PI3K-mediated p70S6K1 phosphorylation at Thr389 at 3 uM by Western blot analysis
[9] = target: Vascular endothelial growth factor receptor 2 (Homo sapiens) (UniProt P35968); details: at 10 µM
Chain of Vascular endothelial growth factor receptor 2 (Homo sapiens) (P35968 whole entry): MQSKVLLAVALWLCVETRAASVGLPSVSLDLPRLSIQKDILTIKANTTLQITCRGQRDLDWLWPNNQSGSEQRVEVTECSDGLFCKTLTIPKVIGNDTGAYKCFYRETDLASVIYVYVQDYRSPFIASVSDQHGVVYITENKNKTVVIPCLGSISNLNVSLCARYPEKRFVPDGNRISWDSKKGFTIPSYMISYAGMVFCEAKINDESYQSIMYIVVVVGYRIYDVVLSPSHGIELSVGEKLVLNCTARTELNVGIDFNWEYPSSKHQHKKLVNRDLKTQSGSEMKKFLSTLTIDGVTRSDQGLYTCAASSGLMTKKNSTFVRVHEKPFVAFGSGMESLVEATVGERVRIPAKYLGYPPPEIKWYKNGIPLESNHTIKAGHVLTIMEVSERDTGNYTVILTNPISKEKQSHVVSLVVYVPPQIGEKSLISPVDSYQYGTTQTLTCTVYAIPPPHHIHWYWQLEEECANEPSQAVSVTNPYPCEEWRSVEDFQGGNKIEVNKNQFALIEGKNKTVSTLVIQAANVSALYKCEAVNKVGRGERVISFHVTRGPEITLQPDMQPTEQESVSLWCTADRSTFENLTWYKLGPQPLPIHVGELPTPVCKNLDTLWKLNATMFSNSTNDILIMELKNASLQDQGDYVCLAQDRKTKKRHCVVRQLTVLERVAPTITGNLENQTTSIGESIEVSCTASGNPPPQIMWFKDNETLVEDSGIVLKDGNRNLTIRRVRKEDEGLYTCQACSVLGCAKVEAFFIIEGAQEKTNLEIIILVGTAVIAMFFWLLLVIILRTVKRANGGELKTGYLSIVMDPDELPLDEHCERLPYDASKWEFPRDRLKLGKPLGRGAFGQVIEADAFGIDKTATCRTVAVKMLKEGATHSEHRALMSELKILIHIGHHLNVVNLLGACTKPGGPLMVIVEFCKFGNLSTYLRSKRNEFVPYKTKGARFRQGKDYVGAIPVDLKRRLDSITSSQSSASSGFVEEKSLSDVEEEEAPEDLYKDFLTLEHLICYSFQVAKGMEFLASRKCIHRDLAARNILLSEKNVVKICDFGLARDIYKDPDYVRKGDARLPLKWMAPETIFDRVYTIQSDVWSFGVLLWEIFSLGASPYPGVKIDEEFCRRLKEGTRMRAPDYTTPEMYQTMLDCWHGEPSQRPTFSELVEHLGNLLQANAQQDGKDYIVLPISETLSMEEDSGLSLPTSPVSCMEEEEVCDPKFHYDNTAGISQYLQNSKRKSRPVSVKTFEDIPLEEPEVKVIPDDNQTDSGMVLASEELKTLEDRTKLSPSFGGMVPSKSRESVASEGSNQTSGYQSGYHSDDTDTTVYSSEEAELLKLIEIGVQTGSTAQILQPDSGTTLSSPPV
Description: Inhibition of KDR at 10 uM

MCF7 = assay: Antiproliferative activity against human MCF7 cells; assay type: functional, cell-based
[10] = target: Proto-oncogene tyrosine-protein kinase receptor Ret (Homo sapiens) (UniProt P07949); assay: Inhibition of RET at 10 uM
HT-29 = assay: Antiproliferative activity against human HT-29 cells; assay type: functional, cell-based
[11] = target: Epidermal growth factor receptor (Homo sapiens) (UniProt P00533); details: at 10 µM
Description: Inhibition of EGFR at 10 uM

[12] = target: T1, Ephrin type-B receptor 2 (Homo sapiens) (UniProt P29323); assay: Inhibition of EPH-B2 at 10 uM
T1 sequence (whole entry): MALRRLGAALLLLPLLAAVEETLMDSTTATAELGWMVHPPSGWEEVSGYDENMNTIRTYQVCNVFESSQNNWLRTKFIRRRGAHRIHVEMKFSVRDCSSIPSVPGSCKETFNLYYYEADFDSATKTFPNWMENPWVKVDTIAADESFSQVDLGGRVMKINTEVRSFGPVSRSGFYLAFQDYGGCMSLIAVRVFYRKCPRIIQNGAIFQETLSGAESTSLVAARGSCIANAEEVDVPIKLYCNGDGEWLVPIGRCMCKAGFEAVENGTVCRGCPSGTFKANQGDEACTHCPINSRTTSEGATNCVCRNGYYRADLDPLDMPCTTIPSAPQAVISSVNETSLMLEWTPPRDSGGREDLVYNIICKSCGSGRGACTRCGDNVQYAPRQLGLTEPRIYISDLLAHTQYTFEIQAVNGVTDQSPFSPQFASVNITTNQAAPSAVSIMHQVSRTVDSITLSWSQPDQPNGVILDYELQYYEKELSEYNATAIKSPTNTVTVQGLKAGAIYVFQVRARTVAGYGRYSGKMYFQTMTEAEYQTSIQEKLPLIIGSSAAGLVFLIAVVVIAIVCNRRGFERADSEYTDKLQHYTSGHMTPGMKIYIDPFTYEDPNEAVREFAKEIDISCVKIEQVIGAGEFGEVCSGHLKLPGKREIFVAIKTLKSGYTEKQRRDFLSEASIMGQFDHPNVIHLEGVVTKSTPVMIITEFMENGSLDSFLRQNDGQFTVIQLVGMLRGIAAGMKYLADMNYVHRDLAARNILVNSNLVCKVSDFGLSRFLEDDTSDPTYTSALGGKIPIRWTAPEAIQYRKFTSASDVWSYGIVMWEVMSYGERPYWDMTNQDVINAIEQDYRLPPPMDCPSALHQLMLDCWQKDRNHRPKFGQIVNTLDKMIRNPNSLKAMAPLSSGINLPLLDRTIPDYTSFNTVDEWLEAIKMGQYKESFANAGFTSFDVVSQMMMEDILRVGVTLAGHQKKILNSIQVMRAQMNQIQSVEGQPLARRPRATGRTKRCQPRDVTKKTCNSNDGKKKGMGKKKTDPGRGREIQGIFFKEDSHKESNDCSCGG

[13] = target: Proto-oncogene tyrosine-protein kinase Src (Homo sapiens) (UniProt P12931); details: at 10 µM
Description: Inhibition of c-Src at 10 uM

[14] = Cell cycle arrest in human Rh30 cells assessed as increase in G1 cell population at 1 to 10 uM by flow cytometric analysis; assay type: functional, cell-based; details: SJRH30
[15] = target: Receptor tyrosine-protein kinase erbB-2 (Homo sapiens) (UniProt P04626); assay: Inhibition of ErbB2 at 10 uM
[16] = target: Platelet-derived growth factor receptor alpha (Homo sapiens) (UniProt P16234); assay: Inhibition of PDGFRalpha at 10 uM
[17] = target: Macrophage-stimulating protein receptor (Homo sapiens) (UniProt Q04912); assay: Inhibition of RON at 10 uM
Chain of Macrophage-stimulating protein receptor (Homo sapiens) (Q04912 25-304 limits assumed): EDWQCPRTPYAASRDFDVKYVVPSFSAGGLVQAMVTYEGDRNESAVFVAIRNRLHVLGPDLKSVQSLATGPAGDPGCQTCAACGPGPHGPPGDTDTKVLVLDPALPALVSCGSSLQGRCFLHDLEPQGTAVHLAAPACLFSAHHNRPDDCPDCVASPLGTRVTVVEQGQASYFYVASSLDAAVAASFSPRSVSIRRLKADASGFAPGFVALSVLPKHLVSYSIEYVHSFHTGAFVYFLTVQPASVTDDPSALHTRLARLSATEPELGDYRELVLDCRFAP
Chain of Macrophage-stimulating protein receptor (Homo sapiens) (Q04912 310-1400 limits assumed): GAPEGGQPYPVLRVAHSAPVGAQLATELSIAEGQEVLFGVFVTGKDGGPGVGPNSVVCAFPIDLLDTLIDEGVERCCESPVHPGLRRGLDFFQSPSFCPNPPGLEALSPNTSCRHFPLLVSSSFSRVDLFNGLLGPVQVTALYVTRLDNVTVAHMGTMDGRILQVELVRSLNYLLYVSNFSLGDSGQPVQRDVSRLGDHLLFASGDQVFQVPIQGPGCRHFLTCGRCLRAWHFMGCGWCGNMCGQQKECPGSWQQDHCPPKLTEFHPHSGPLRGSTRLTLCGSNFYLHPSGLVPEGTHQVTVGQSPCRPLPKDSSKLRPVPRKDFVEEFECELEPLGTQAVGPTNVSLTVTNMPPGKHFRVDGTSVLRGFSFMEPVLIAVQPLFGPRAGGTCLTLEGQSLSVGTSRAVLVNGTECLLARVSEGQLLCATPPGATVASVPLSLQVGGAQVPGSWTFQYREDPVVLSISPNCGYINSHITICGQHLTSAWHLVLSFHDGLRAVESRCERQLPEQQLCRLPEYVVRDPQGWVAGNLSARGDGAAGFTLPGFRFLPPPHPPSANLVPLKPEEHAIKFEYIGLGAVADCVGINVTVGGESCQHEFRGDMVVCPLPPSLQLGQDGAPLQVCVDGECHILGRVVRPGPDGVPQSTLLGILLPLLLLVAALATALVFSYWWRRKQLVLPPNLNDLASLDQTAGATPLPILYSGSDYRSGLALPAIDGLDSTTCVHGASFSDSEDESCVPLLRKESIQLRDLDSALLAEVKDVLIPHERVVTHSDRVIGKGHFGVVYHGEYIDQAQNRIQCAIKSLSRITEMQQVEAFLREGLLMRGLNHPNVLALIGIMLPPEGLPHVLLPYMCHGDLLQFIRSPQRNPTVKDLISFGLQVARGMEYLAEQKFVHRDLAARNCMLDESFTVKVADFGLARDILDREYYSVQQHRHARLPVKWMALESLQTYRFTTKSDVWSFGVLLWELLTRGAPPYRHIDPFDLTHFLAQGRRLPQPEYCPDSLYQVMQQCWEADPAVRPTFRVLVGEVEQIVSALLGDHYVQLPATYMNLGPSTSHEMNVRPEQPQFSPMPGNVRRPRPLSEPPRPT

[18] = Inhibition of PI3K-mediated Akt pathway by Western blot analysis
[19] = Inhibition of PI3K-mediated mTOR pathway by Western blot analysis
[20] = target: Phosphatidylinositol 4,5-bisphosphate 3-kinase catalytic subunit alpha isoform (Homo sapiens, UniProt P42336); assay: Inhibition of PI3Kalpha by luminescent kinase assay

| Structure (SMILES) | Activity [1] | inhibition [2] | inhibition [3] [%] | inhibition [4] [%] | IC50 [5] [µM] | IC50 (ECV-304) [µM] | inhibition [6] [%] | inhibition [7] [%] | inhibition [8] | inhibition [9] [%] | IC50 (MCF7) [µM] | inhibition [10] [%] | IC50 (HT-29) [µM] | inhibition [11] [%] | inhibition [12] [%] | inhibition [13] [%] | Activity [14] | inhibition [15] [%] | inhibition [16] [%] | inhibition [17] [%] | other results |
| --- | --- | --- | --- | --- | --- | --- | --- | --- | --- | --- | --- | --- | --- | --- | --- | --- | --- | --- | --- | --- | --- |
| C=CC(=O)Oc1cccc(-c2nc(N3CCOCC3)c3cc4ncccc4n3n2)c1 | Active | Active | 18.9 | 41.1 | 7.9 | 4 | 6.3 | 32.8 | Active | 28.4 | 15.3 | 31.9 | 29.9 | 17.8 | 53.4 | 56.2 | Active | 21.3 | 29.4 | 3.3 | Akt pathway inhibition (qualitative) [18]: Dose-dependent effect; mTOR pathway inhibition (qualitative) [19]: Dose-dependent effect; IC50 [20]: 0.0478 µM |
| CCN(CC)CCNC(=O)c1c(C)[nH]c(/C=C2\C(=O)Nc3ccc(F)cc32)c1C | – | – | 84.8 | – | – | – | 90.6 | – | – | – | – | 84.8 | – | – | – | – | – | – | 93 | – | – |
| CCCC(=O)Oc1cccc(-c2nc(N3CCOCC3)c3cc4ncccc4n3n2)c1 | Active | Active | 25.4 | 15.6 | 3.6 | 1.4 | 5.1 | 33.9 | Active | 25.6 | 6.1 | 25.8 | 16.4 | 16 | 53 | 48.2 | Active | 12.5 | 14 | 7.4 | Akt pathway inhibition (qualitative) [18]: Dose-dependent effect; mTOR pathway inhibition (qualitative) [19]: Dose-dependent effect; IC50 [20]: 0.511 µM |
| CCCC(CCC)C(=O)Oc1cccc(-c2nc(N3CCOCC3)c3cc4ncccc4n3n2)c1 | Active | Active | 24.9 | 32.7 | 5.6 | 2.5 | 13.6 | 29 | Active | 29.1 | 7.3 | 14.4 | 37.5 | 20.2 | 49.2 | 49.8 | Active | 25.6 | 28.7 | 23.1 | Akt pathway inhibition (qualitative) [18]: Dose-dependent effect; mTOR pathway inhibition (qualitative) [19]: Dose-dependent effect; IC50 [20]: 0.0607 µM |
| Cc1[nH]c(/C=C2\C(=O)Nc3ccc(S(=O)(=O)N(C)c4cccc(Cl)c4)cc32)c(C)c1C(=O)N1CCN(C)CC1 | – | – | – | – | – | – | – | 61.8 | – | – | – | – | – | – | – | – | – | – | – | 52.2 | – |
| N#C/C(=C\c1ccc(O)c(O)c1)C(=O)c1ccc(O)c(O)c1 | – | – | – | 82.2 | – | – | – | – | – | – | – | – | – | – | – | – | – | – | – | – | – |
| Oc1cccc(-c2nc(N3CCOCC3)c3cc4ncccc4n3n2)c1 | Active | Active | 49.4 | 35.2 | 13.1 | 6.7 | 42.4 | 43.8 | Active | 39.2 | 22.7 | 37.8 | 22.3 | 17.4 | 44 | 65.3 | Active | 10.9 | 41.2 | 37 | Akt pathway inhibition (qualitative) [18]: Dose-dependent effect; mTOR pathway inhibition (qualitative) [19]: Dose-dependent effect; IC50 [20]: 0.0336 µM |
| O=C(Oc1cccc(-c2nc(N3CCOCC3)c3cc4ncccc4n3n2)c1)c1ccncc1 | Active | inactive | 45.2 | 39.8 | 13.3 | 10 | 34.7 | 34.8 | inactive | 35.4 | 20 | 28.9 | 28 | 6.2 | 53.8 | 67.2 | Active | 23.3 | 40 | 27.2 | Akt pathway inhibition (qualitative) [18]: Dose-dependent effect; mTOR pathway inhibition (qualitative) [19]: Dose-dependent effect; IC50 [20]: 0.421 µM |
| CCC(=O)Oc1cccc(-c2nc(N3CCOCC3)c3cc4ncccc4n3n2)c1 | Active | Active | 29 | 23.7 | 8.6 | 4 | 11.8 | 31.7 | Active | 25 | 18.7 | 43 | 30.4 | 26.8 | 48.6 | 52.8 | Active | 12.5 | 13 | 17.6 | Akt pathway inhibition (qualitative) [18]: Dose-dependent effect; mTOR pathway inhibition (qualitative) [19]: Dose-dependent effect; IC50 [20]: 0.544 µM |
| O=C(Oc1cccc(-c2nc(N3CCOCC3)c3cc4ncccc4n3n2)c1)c1ccco1 | Active | inactive | 26.9 | 29.2 | 9.3 | 6 | 13.5 | 32.5 | inactive | 24.7 | 12.8 | 22.8 | 21.6 | 11.8 | 35.8 | 47.9 | Active | 23.6 | 22.2 | 4.2 | Akt pathway inhibition (qualitative) [18]: Dose-dependent effect; mTOR pathway inhibition (qualitative) [19]: Dose-dependent effect; IC50 [20]: 0.425 µM |
| CS(=O)(=O)CCNCc1ccc(-c2ccc3ncnc(Nc4ccc(OCc5cccc(F)c5)c(Cl)c4)c3c2)o1 | – | – | – | – | – | – | – | – | – | – | – | – | – | – | – | – | – | 78 | – | – | – |
| CC(=O)Oc1cccc(-c2nc(N3CCOCC3)c3cc4ncccc4n3n2)c1 | Active | Active | 24.7 | 33.4 | 12.1 | 3.8 | 0 | 29 | Active | 23.1 | 14.4 | 19 | > 50 | 4.6 | 37.2 | 40 | Active | 7.1 | 21.8 | 9.4 | Akt pathway inhibition (qualitative) [18]: Dose-dependent effect; mTOR pathway inhibition (qualitative) [19]: Dose-dependent effect; IC50 [20]: 0.0497 µM |
| Oc1cccc(-c2nc(N3CCOCC3)c3oc4ncccc4c3n2)c1 [PI-103] | – | – | – | – | 7 | 6.3 | – | – | – | – | 22.4 | – | > 50 | – | – | – | Active | – | – | – | – |
| Cc1nc(Nc2ncc(C(=O)Nc3c(C)cccc3Cl)s2)cc(N2CCN(CCO)CC2)n1 | – | – | – | – | – | – | – | – | – | – | – | – | – | – | 89.2 | – | – | – | – | – | – |
